Reference: article PMC12592502, “Unraveling the mechanisms behind the enhanced efficacy of β-lactam-based sideromycins” (Communications Biology, 2025)
Values after ≈ are worked out from the molar mass of the structure shown.

Assays:
E. coli ΔcirA = test: MIC, Keio mutant; type: cell-based, Escherichia coli
Procedure: (§1) All bacterial strains (see description and sources Table S1) were stored at −80 °C, and grown on tryptone soya agar (TSA) at 35 °C. The iron-deprived (ID)-MHBCA (cation-adjusted Muller-Hinton Broth, Becton Dickinson, Mississauga, ON, Canada) medium was prepared as reported by refs. [21],[50]. Briefly, MHBCA was treated with 10% Chelex® 50-100 mesh (Sigma) and stirred for 6 h at room temperature. The resin was removed by filtration. Divalent Ca^2+ (CaCl2), Mg^2+ (MgCl2), and Zn^2+(ZnSO4), were then added in the iron-depleted medium at 22, 12, and 1 μg/ml respectively. Finally, the pH was adjusted to 7.3, and the medium was sterilized with a 0.2-μm filter. Regular MHBCA (i.e., not treated with Chelex®) was used to compare the inhibitory activity of conjugates in iron-sufficient conditions.
(§2) Minimal inhibitory concentrations (MICs) were performed using a broth microdilution technique according to the Clinical and Laboratory Standards Institute (CLSI) guidelines. MICs were determined in MHBCA and in ID-MHBCA. To check the impact of β-lactamases, MICs in the presence of a β-lactamase inhibitor were also determined. The inhibitor was homogenized at 2X the final concentration and added to the bacterial inoculum just before distributing cells into the wells containing the drug dilutions. The final concentration of each inhibitor was 4 μg/mL for clavulanic acid (tested against K. pneumoniae) and 200 μg/mL for 3-aminophenylboronic acid (tested against P. aeruginosa and A. baumannii).

E. coli Δfiu = test: MIC, Keio mutant; type: cell-based, Escherichia coli; conditions: Escherichia coli
Procedure: as §1, §2

E. coli ΔfhuA = test: MIC, Keio mutant; type: cell-based, Escherichia coli; conditions: Escherichia coli
Procedure: as §1, §2

E. coli ΔacrAB = test: MIC, efflux pump mutant; type: cell-based, Escherichia coli; conditions: Escherichia coli
Procedure: as §2

PBP2 = PBP2 (Klebsiella pneumoniae, UniProt A6T696); test: Membrane PBP binding assay, competition with Bocillin FL; design: species or system K. pneumoniae ATCC 13883; conditions: read-out: IC50 PBP2; K. pneumoniae ATCC 13883 membranes
Procedure: Membrane extracts containing PBPs were obtained as described above. Briefly, all species were grown in 1 L of TSB until the OD600 reached 0.9. The washed pellet was incubated with lysozyme (400 μg/mL), DNase (10 μg/mL) RNase(10 μg/mL) and anti-protease cocktail (200 mg/20 mL). Lysis was done with a French press (20,000 psi) and membrane protein were pelleted by ultracentrifugation steps (100,000 × g). The pellet was suspended in a minimal volume (300–500 μL) of KP 0.05 M buffer at pH 7. The protein concentration in the membrane preparations was determined with the Micro BCA TM Protein Assay Kit (Thermo Fisher Scientific, Rockford, IL) using bovine serum albumin as a standard.
The PBP binding assay was done as described previously[36],[56],[57]. For each antibiotic concentration tested, a quantity of 25 to 40 μg of membrane preparation was used as the source of PBPs, depending on the species. For the purified PaPBP3, 150 ng was used in the assay. First, increasing concentrations of the test antibiotic was added to the membrane or purified PaPBP3 preparations and incubated for 10 min at 30 °C. The reporter molecule Bocillin FL was then added at 12.5 μM for the membrane PBPs preparations and at 500 nM for the pure PaPBP3 samples for an additional 20 min at 30 °C. All reactions were stopped with the addition of the Laemmli-loading buffer (Bio-Rad) containing fresh β-mercaptoethanol (Sigma). All reactions were then heated at 100°C for 3 min before migration on SDS-polyacrylamide discontinuous gel system (7.5% stacking and 10% separating). Control samples without Bocillin FL were also included to highlight autofluorescent proteins that are not PBPs.
To be able to visualize labeled PBPs after electrophoresis, gels were rinsed in water and fixed in a solution of 50% methanol and 7% acetic acid for 30 min. The fluorescent images of gels were obtained with the Typhoon FLA 9500 instrument (GE-Healthcare Bio-Sciences Inc., Baie-d’Urfé, QC, CA) using a 473 nm excitation wavelength. To obtain quantifiable data, the software Quantity One 1D analysis was used (version 4.6.6; Bio-Rad Laboratories, Richmond, CA). The volume (intensity × constant area) of each PBP was measured. […] All IC50 data were obtained from at least two independent PBP binding assays using two different sets of compound concentrations using a linear regression. The PBP profiles were confirmed, and the PBP numbering were determined using published data and individual molecular weights. […] For example, amdinocillin (Sigma) was used for PBP2 identification. […] The IC50 for PBP 2 of P. aeruginosa was measured by including the SDS-PAGE comigrating autofluorescent protein in the background, as done previously.

K. pneumoniae ATCC 13883 = test: MIC, broth microdilution (CLSI); type: cell-based, Klebsiella pneumoniae; conditions: for MIC with β-lactamase inhibitor (βI): + 4 μg/mL clavulanic acid
Procedure: as §1, with “conditions. The resin used for Chelex treatment was always fresh and had never been regenerated, ensuring consistent iron removal.” for “conditions.”
as §2

E. coli ΔampC = test: MIC, Keio mutant; type: cell-based, Escherichia coli; conditions: Escherichia coli
Procedure: as §1, with “conditions. The resin used for Chelex treatment was always fresh and had never been regenerated, ensuring consistent iron removal.” for “conditions.”
as §2

P. aeruginosa 1020 = test: MIC, parent of efflux pump mutants; type: cell-based, Pseudomonas aeruginosa; conditions: Pseudomonas aeruginosa; P. aeruginosa 1020; read-out: MIC
Procedure: as §2

E. coli ATCC 25922 = test: MIC, broth microdilution (CLSI); type: cell-based, Escherichia coli
Procedure: as §1, §2

Chain of PBP2 (A6T696 entry or part of it): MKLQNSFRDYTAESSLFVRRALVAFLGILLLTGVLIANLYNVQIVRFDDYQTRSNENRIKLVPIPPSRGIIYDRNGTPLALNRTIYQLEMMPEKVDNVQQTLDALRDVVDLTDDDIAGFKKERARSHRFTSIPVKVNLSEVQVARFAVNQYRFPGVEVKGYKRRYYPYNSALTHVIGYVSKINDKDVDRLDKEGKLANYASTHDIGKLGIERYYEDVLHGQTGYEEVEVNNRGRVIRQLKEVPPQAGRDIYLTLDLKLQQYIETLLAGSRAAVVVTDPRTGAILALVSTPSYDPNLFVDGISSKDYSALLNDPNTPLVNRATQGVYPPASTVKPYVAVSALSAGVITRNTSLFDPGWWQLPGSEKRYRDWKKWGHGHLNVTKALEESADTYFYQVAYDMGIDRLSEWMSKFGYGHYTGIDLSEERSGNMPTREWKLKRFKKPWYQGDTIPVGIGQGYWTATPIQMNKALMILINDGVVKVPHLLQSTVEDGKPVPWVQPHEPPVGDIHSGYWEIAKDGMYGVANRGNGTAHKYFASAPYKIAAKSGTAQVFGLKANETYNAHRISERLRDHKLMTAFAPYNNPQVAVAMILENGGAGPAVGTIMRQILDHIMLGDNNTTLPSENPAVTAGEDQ

For `O=C(CCC(=O)N(CCCCNC(=O)c1cccc(O)c1O)CCCNC(=O)c1cccc(O)c1O)NCCCCCN(O)C(=O)CCCC(=O)NC(C(=O)NC1C(=O)N2C(C(=O)O)=C(Cl)CSC12)c1ccccc1` (centres unmarked) [MCEF, mixed ligand bis-catechol-mono-hydroxamate-cefaclor], the MIC (E. coli ΔcirA; Escherichia coli, ID-MHBCA) was over 200 µM, the MIC (E. coli ΔcirA; Escherichia coli, MHBCA) was over 200 µM and the MIC (E. coli ΔcirA; MHBCA) was over 200 µM. For the same compound, the MIC (E. coli Δfiu; ID-MHBCA) was over 200 µM, the MIC (E. coli Δfiu; MHBCA) was 100 µM (≈ 108 µg/mL) and the MIC (E. coli ΔfhuA; ID-MHBCA) was over 200 µM. It also gave an MIC (E. coli ΔfhuA; MHBCA) of 13 µM (≈ 14.1 µg/mL), an MIC (E. coli ΔacrAB) of 3.1 µM (≈ 3.35 µg/mL) and an IC50 (PBP2) of 16.8 ± 0.3 µM. The “MIC ratio unconjugated β-lactam/conjugate” value (K. pneumoniae ATCC 13883; ID-MHBCA) was under 0.016, the MIC (K. pneumoniae ATCC 13883; ID-MHBCA (−), 0 µg/mL supplemental iron) was over 200 µM and the “MIC with β-lactamase inhibitor (βI)” value (K. pneumoniae ATCC 13883; ID-MHBCA) was 200 µM. For the same compound, the MIC (K. pneumoniae ATCC 13883; Klebsiella pneumoniae, ATCC13883, ID-MHBCA (−), 0 µg/mL supplemental iron) was over 200 µM, the MIC (K. pneumoniae ATCC 13883; Klebsiella pneumoniae, ATCC13883, ID-MHBCA + 1 µg/mL supplemental iron) was over 200 µM and the MIC (K. pneumoniae ATCC 13883; Klebsiella pneumoniae, ATCC13883, MHBCA (+)) was over 200 µM. For the same compound, the “MIC ratio unconjugated β-lactam/conjugate” value (K. pneumoniae ATCC 13883; MHBCA) was under 0.016, the MIC (K. pneumoniae ATCC 13883; MHBCA (+)) was over 200 µM and the “MIC with β-lactamase inhibitor (βI)” value (K. pneumoniae ATCC 13883; MHBCA) was 13 µM. It also gave an MIC (E. coli ΔampC; ID-MHBCA) of over 200 µM, an MIC (E. coli ΔampC; MHBCA) of 13 µM (≈ 14.1 µg/mL) and an MIC (P. aeruginosa 1020) of over 100 µM. It also gave an MIC (E. coli ATCC 25922; Escherichia coli, ATCC25922, ID-MHBCA + 1 µg/mL supplemental iron) of 25 µM, an MIC (E. coli ATCC 25922; Escherichia coli, ATCC25922, MHBCA (+)) of 6.3 to 25 µM (≈ 6.81 to 27 µg/mL) and an MIC (E. coli ATCC 25922; Escherichia coli, ATCC25922, iron-deprived ID-MHBCA (−), 0 µg/mL supplemental iron) of over 200 µM. For the same compound, the “MIC ratio unconjugated β-lactam/conjugate” value (E. coli ATCC 25922; ID-MHBCA) was under 0.016 and the MIC (E. coli ATCC 25922; iron-deprived ID-MHBCA (−), 0 µg/mL supplemental iron) was over 200 µM.
